Measured values reported in patent publication US20100273189A1, “NON SEPARATION ASSAYS WITH SELECTIVE SIGNAL INHIBITORS” (BECKMAN COULTER, INC., priority 2009, published 2010).

Legend:
Type in all cases: biochemical
cTnI [1] = assay: Effect of ascorbic acid concentration on cTnI assay using various particles; settings: ascorbic acid 150 μM to 9.4 μM; Dynal M-280, 6 μm CML, LodeStars; in words
Protocol: Effect of ascorbic acid on cTnI assay using various particles. The effect of varying the ascorbic acid concentration in the range 150 μM to 9.4 μM on chemiluminescence was investigated for assays employing Dynal M-280, 6 μm CML, and LodeStars particles.

TnI = assay: Effect of trigger pH: TnI on LodeStars with ascorbate
Protocol: B. In order to determine the effect of trigger solution pH on a variety of test assay systems, a series of experiments were conducted varying trigger pH. […] In the tables, two pH values are listed for each data set. The first is the pH of the buffer sample added to the reaction mixture. The second is the resulting pH of the final reaction mix.

biotin-HRP = assay: Effect of ascorbic acid incubation time on chemiluminescence, Dynal M-280 biotin-HRP system; settings: incubation time 80-330 seconds; ascorbic acid 0-200 μM; in words
Protocol: The effect of the length of time that a sample is exposed to ascorbic acid on the observed reduction of chemiluminescence intensity was investigated in a series of experiments employing the Dynal M-280 PMP particles and biotin-HRP system described in Example 11. Briefly, biotin-labeled PMPs, and various biotin-HRP/HRP solutions were allowed to bind and ascorbic acid solutions added. After a delay period ranging from 80-330 seconds, trigger solution A was injected and the chemiluminescence intensity integrated. The biotin-HRP/HRP solutions contained a total of 200 ng/mL HRP in the proportion 1:200, 8:192, and 32:168 biotin-HRP:HRP. Trials were run using various concentrations of ascorbic acid as the Sample in water at 0, 25, 50 100 and 200 μM.

cTnI [2] = assay: Comparison of particle types in cTnI assay, with and without ascorbic acid; settings: 150 μM ascorbic acid; each particle system; highest calibrator level; in words
Protocol: Signal generation with Silica and PMMA particles. A comparison of Dynal M-280, 3 um CML, 6 um CML, PMMA, silica and LodeStars particles was conducted using the cTnI assay described above. The preparation of each particle, bearing a coating of streptavidin, is described in the foregoing examples. Ascorbic acid, when present, was at 150 μM.

cTnI [3] = assay: cTnI assay with various magnetic particles, without and with ascorbic acid 150 μM
Source text: The effectiveness of ascorbic acid in improving assay performance in microparticle formats was investigated using a cTnI analyte with various magnetic particles. Magnetic particles evaluated included LodeStars PMP, latex PMP and carboxylate-modified polystyrene latex PMP. “Lot B Magnetic Particle” are 6.2 μm diameter carboxyl PMPs (Bangs Laboratories, Fishers, Ind.). “Lot D Magnetic Particle” are 8.1 μm diameter carboxyl PMPs (Bangs Laboratories). “Lot F Latex Particle” are 3.1 μm diameter carboxyl PMPs (Seradyn Products, Thermo-Fisher, Indianapolis, Ind.). “CML PMP” are […] diameter carboxylate modified latex particles (Invitrogen, Carlsbad, Calif.). LodeStars PMP were labeled with AK4 and biotin by EDC coupling and overcoated with streptavidin following the general protocol of Example 3. Lots B, D, and F and CML PMP were labeled with AK-BSA-biotin according to Example 1. The particles were then coated with streptavidin and bound to biotin-labeled anti-cTnI.
In an initial experiment, the cTnI assay was conducted without ascorbic acid in the reaction mix.
In this case, LodeStars particles retain much more specific signal than the other particle types, even while the background decreases almost […].

[4] = Control (7.5), S1, TnI 172 ng/ml
[5] = Control (7.5), S2, TnI 366 ng/ml
[6] = Control (7.5), S3, TnI 1368 ng/ml
[7] = Control (7.5), S4, TnI 11136 ng/ml
[8] = Control (7.5), S5, TnI 27922 ng/ml
[9] = Control (7.5), S6, TnI 10600 ng/ml
[10] = pH 6.0 (5.9), S1, TnI 172 ng/ml
[11] = pH 6.0 (5.9), S2, TnI 366 ng/ml
[12] = pH 6.0 (5.9), S3, TnI 1368 ng/ml
[13] = pH 6.0 (5.9), S4, TnI 11136 ng/ml
[14] = pH 6.0 (5.9), S5, TnI 27922 ng/ml
[15] = pH 6.0 (5.9), S6, TnI 10600 ng/ml
[16] = pH 7.0 (7.1), S1, TnI 172 ng/ml
[17] = pH 7.0 (7.1), S2, TnI 366 ng/ml
[18] = pH 7.0 (7.1), S3, TnI 1368 ng/ml
[19] = pH 7.0 (7.1), S4, TnI 11136 ng/ml
[20] = pH 7.0 (7.1), S5, TnI 27922 ng/ml
[21] = pH 7.0 (7.1), S6, TnI 10600 ng/ml
[22] = pH 8.0 (7.9), S1, TnI 172 ng/ml
[23] = pH 8.0 (7.9), S2, TnI 366 ng/ml
[24] = pH 8.0 (7.9), S3, TnI 1368 ng/ml
[25] = pH 8.0 (7.9), S4, TnI 11136 ng/ml
[26] = pH 8.0 (7.9), S5, TnI 27922 ng/ml
[27] = pH 8.0 (7.9), S6, TnI 10600 ng/ml
[28] = pH 9.0 (8.7), S1, TnI 172 ng/ml
[29] = pH 9.0 (8.7), S2, TnI 366 ng/ml
[30] = pH 9.0 (8.7), S3, TnI 1368 ng/ml
[31] = pH 9.0 (8.7), S4, TnI 11136 ng/ml
[32] = pH 9.0 (8.7), S5, TnI 27922 ng/ml
[33] = pH 9.0 (8.7), S6, TnI 10600 ng/ml

## O=C1O[C@H]([C@@H](O)CO)C(O)=C1O [Ascorbic Acid, Ascorbic acid]
cTnI [1]
  signal/background: improved analytical sensitivity by increasing signal/background
TnI; Control (7.5), S0, TnI 0 ng/ml
  Ave RLUs: 543 RLU
TnI; [4]
  Ave RLUs: 1,013 RLU
  S/S0: 1.9
TnI; [5]
  Ave RLUs: 1,815 RLU
  S/S0: 3.3
TnI; [6]
  Ave RLUs: 5,981 RLU
  S/S0: 11.0
TnI; [7]
  Ave RLUs: 53,524 RLU
  S/S0: 98.6
TnI; [8]
  Ave RLUs: 155,889 RLU
  S/S0: 287.3
TnI; [9]
  Ave RLUs: 1,235,103 RLU
  S/S0: 2276.0
TnI; pH 6.0 (5.9), S0, TnI 0 ng/ml
  Ave RLUs: 273 RLU
TnI; [10]
  Ave RLUs: 379 RLU
  S/S0: 1.4
TnI; [11]
  Ave RLUs: 600 RLU
  S/S0: 2.2
TnI; [12]
  Ave RLUs: 1,452 RLU
  S/S0: 5.3
TnI; [13]
  Ave RLUs: 11,579 RLU
  S/S0: 42.4
TnI; [14]
  Ave RLUs: 32,519 RLU
  S/S0: 119.0
TnI; [15]
  Ave RLUs: 216,379 RLU
  S/S0: 791.6
TnI; pH 7.0 (7.1), S0, TnI 0 ng/ml
  Ave RLUs: 519 RLU
TnI; [16]
  Ave RLUs: 1,031 RLU
  S/S0: 2.0
TnI; [17]
  Ave RLUs: 1,703 RLU
  S/S0: 3.3
TnI; [18]
  Ave RLUs: 5,695 RLU
  S/S0: 11.0
TnI; [19]
  Ave RLUs: 57,599 RLU
  S/S0: 111.1
TnI; [20]
  Ave RLUs: 145,140 RLU
  S/S0: 279.8
TnI; [21]
  Ave RLUs: 938,075 RLU
  S/S0: 1808.6
TnI; pH 8.0 (7.9), S0, TnI 0 ng/ml
  Ave RLUs: 699 RLU
TnI; [22]
  Ave RLUs: 1,319 RLU
  S/S0: 1.9
TnI; [23]
  Ave RLUs: 2,359 RLU
  S/S0: 3.4
TnI; [24]
  Ave RLUs: 8,048 RLU
  S/S0: 11.5
TnI; [25]
  Ave RLUs: 72,016 RLU
  S/S0: 103.1
TnI; [26]
  Ave RLUs: 225,113 RLU
  S/S0: 322.2
TnI; [27]
  Ave RLUs: 1,574,655 RLU
  S/S0: 2253.8
TnI; pH 9.0 (8.7), S0, TnI 0 ng/ml
  Ave RLUs: 413 RLU
TnI; [28]
  Ave RLUs: 716 RLU
  S/S0: 1.7
TnI; [29]
  Ave RLUs: 1,097 RLU
  S/S0: 2.7
TnI; [30]
  Ave RLUs: 3,999 RLU
  S/S0: 9.7
TnI; [31]
  Ave RLUs: 36,424 RLU
  S/S0: 88.1
TnI; [32]
  Ave RLUs: 107,020 RLU
  S/S0: 258.9
TnI; [33]
  Ave RLUs: 855,956 RLU
  S/S0: 2070.9
biotin-HRP
  effect of ascorbic acid incubation time on observed chemiluminescence: does not appear to cause a significant effect
cTnI [2]
  S/S0: markedly improved S/S0
cTnI [3]; ascorbic acid 150 μM prior to addition of trigger, LodeStars particles
  background decrease: ~300%
cTnI [3]; ascorbic acid in the assay reaction mixture, in words
  assay sensitivity: significantly improves the assay sensitivity
